Results on 15 molecules are retold here after patent publication US10683293B2, “Optionally fused heterocyclyl-substituted derivatives of pyrimidine useful for the treatment of inflammatory, metabolic, oncologic and autoimmune diseases” (NUEVOLUTION A/S, priority 2014, dated 2020).

pIC50: −log10 of the molar value. A value given as a limit tells only on which side of the number the result lay.

Assay [1] addresses T1, human RORγt (Ligand Binding Domain) (Homo sapiens, UniProt P51449).
T1 construct: purchased Crelux (Planegg, Germany) batch no PC5032-1
T1 sequence (P51449 269-508 limits assumed): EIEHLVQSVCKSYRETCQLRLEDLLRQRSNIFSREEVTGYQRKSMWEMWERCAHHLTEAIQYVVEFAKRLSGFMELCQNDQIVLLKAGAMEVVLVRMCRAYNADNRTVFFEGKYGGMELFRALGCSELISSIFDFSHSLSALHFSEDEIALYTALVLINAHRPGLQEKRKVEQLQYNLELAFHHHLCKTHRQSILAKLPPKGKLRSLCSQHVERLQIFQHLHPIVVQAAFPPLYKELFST
In words: Fluorescence Polarization (FP) Assay. To be noted: 100 nM human RORγt LBD, 25 nM TAMRA probe, values are activity range bounds. In a few lines: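 Binding to the RORγt ligand-binding domain was followed by FP. Displacement of a TAMRA-tagged RORγt ligand tracer (910 g/mol) was measured, with DMSO-only wells as negative control.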

Assay [2] deals with T2, ligand binding domain of human RORγ (Homo sapiens, UniProt P51449).
T2 construct: host or cells: HEK293t
T2 sequence (P51449 269-508 limits assumed): T1 sequence (P51449 269-508 limits assumed)
Description: RORγ Reporter Assay (Gal4). It is filed as cell-based. The settings on record: for inhibition at 1 µM: HEK-293T, 1 μM test compound, HEK293t RORγ reporter cells, 24 hour, read-out: Gal4 activity range @ 1 μM (% inhibition); for Gal4 activity range @ 0.1 μM (% inhibition): RORγ Reporter Assay (Gal4), HEK293t reporter cells, compound at 0.1 μM, values are activity range bounds. As for the experimental part: The activity of the compounds was evaluated using a Fluorescence Polarization (FP) Assay and, RORγ Reporter assay (also referred to as Gal4 assay). The FP assay is an in vitro assay monitoring binding within the ligand binding pocket. The RORγ and the Th17 assays (another suitable assay) are both cell-based assays monitoring functional activity of the compound assayed.
RORγ Reporter Assay (Gal4)
Cell-based RORγ functional assays were performed using a commercially available assay product (INDIGO Biosciences, State College, Pa., USA; product # IB04001). The RORγ reporter cells are HEK293t cells transfected with one vector that provides high level constitutive expression of a hybrid protein comprised of the yeast Gal4-DNA binding domain fused to the ligand binding domain of human RORγ, and a second vector comprising the firefly luciferase cDNA functionally linked to the upstream activation sequence (UAS) of yeast Gal4. A suspension of RORγ Reporter Cells was prepared using the protocol and culture medium provided in the kit product, and 100 μl of the Reporter Cell suspension was then dispensed into wells of a white, collagen-treated, 96-well assay plate. Concentrated stocks of test compounds were prepared in DMSO, then further diluted using media provided in the kit to generate ‘2×-concentration’ treatment media. 100 μl of medium for each respective treatment concentration dispensed into triplicate assay wells, thereby combining with the reporter cells. All media formulations contained 10% charcoal stripped Fetal Bovine Serum, but are otherwise proprietary to INDIGO Biosciences. Final treatment concentrations for each test compound were 1,000 nM and 100 nM, each with 0.1% residual DMSO. Separate control treatments were media supplemented with vehicle only (0.1% DMSO) to determine the constitutive level of RORγ activity in the reporter cells, and the reference inverse-agonist ursolic acid (f.c. 6,000 nM to 8.2 nM in 3-fold decrements) to establish a positive control inverse-agonist dose response. Assay plates were placed in a 37° C., 5% CO2, 85% humidity incubator for 24 hour. Treatment media were then discarded, 100 μl of luciferase detection reagent was added to each well, and relative light units (RLUs) were quantified from each assay well using a plate reading luminometer. Values of average RLU+/−standard deviation were computed for all treatment sets, followed by the calculations of fold-reduction: [Average RLUVehicle/Average RLUTest Cmpd]. Percent-reduction of RORγ activity in response to respective test compound treatments was calculated: [100*(1−[Ave RLUTest Cmpd/Ave RLUVehicle)] where the theoretical minimum reduction (0% reduction) derives from Vehicle treatment only, no treatment compound. In some aspects it may be of interest to provide compounds with selective modulation of RORγ for example compounds that are selective to RORγ over RORα, compounds that are selective for RORγ versus RORPβ, and compounds that are selective for RORγ versus BOTH RORα and RORPβ. It may also be of interest to provide compounds that are selective for RORγ versus further nuclear hormone receptors such as CAR1, FXR, GR, LXRα, LXRβ, PPARα, PXR, RARα, RXRα, TRα, VDR. It is apparent to those skilled in the art that these nuclear hormone receptors are merely examples, and that selectivity against other nuclear receptors may also be of interest. It may for example be of interest to provide compounds that modulate RORγ and one or more further nuclear hormone receptors, as well as compounds that modulate both RORγ and RORα, or RORγ and RORβ. It may also be of interest to provide compounds that modulate RORγ and BOTH RORα and RORP, as well as compounds that modulate both RORγ and one or more further nuclear hormone receptors such as CAR1, FXR, GR, LXRα, LXRβ, PPARα, PXR, RARα, RXRα, TRα, VDR. It is apparent to those skilled in the art that these nuclear hormone receptors are merely examples, and that modulation of even other nuclear receptors may also be of interest. […]

The term pIC50 denotes the negative decadic logarithm of the IC50, by convention in mol/L. As a reminder, the inhibition is the percentage by which the read-out fell short of the control. `CC(c1ccc(C(F)(F)F)cc1)N(c1ncnc(NCc2ccc(NS(=O)(=O)C(F)(F)F)cc2)c1F)C1CC1` (centres unmarked) [Example A74, N-[4-[[[6-[cyclopropyl-[1-[4-(trifluoromethyl)phenyl]ethyl]amino]-5-fluoro-pyrimidin-4-yl]amino]methyl]phenyl]-1,1,1-trifluoro-methanesulfonamide] had a pIC50 in assay [1] of over 6.30. Also, in assay [2], the inhibition at 1 µM was over 50% and the “Gal4 activity range @ 0.1 μM (% inhibition)” value is over 0 % inhibition.

Molecule `CS(=O)(=O)c1ccc(CNc2ncnc(N(Cc3ccc(C(F)(F)F)cn3)C3CC3)c2F)cn1` [Example A108, N4-cyclopropyl-5-fluoro-N6-[(6-methylsulfonyl-3-pyridyl)methyl]-N4-[[5-(trifluoromethyl)-2-pyridyl]methyl]pyrimidine-4,6-diamine] gave a pIC50 in assay [1] of over 5.70. Also, in assay [2], the inhibition at 1 µM is over 80% and the “Gal4 activity range @ 0.1 μM (% inhibition)” value is over 20 % inhibition.

With `CC(=O)N1CCC(CNc2ncnc(N(Cc3ccc(C(F)(F)F)cc3)C3CC3)c2F)CC1` [Example A11, 1-[4-[[[6-[cyclopropyl-[[4-(trifluoromethyl)phenyl]methyl]amino]-5-fluoro-pyrimidin-4-yl]amino]methyl]-1-piperidyl]ethanone], the pIC50 in assay [1] is over 6.30. In assay [2], the inhibition at 1 µM was over 80% and the “Gal4 activity range @ 0.1 μM (% inhibition)” value is given as over 50 % inhibition.

In the case of `CC(C)c1ccc(CN(c2ncnc(NCc3ccc(CC(N)=O)cc3)c2F)C2CC2)cc1` [Example A53, 2-[4-[[[6-[cyclopropyl-[(4-isopropylphenyl)methyl]amino]-5-fluoro-pyrimidin-4-yl]amino]methyl]phenyl]acetamide], in assay [1], the pIC50 was over 6.30. Also, in assay [2], the inhibition at 1 µM was over 80% and the “Gal4 activity range @ 0.1 μM (% inhibition)” value is reported as over 80 % inhibition.

In assay [1], `NC(=O)Cc1ccc(CNc2ncnc(N(Cc3ccc(C(F)(F)F)cc3)C3CCOC3)c2F)cc1` (centres unmarked) [Example A4, 2-[4-[[[5-fluoro-6-[tetrahydrofuran-3-yl-[[4-(trifluoromethyl)phenyl]methyl]amino]pyrimidin-4-yl]amino]methyl]phenyl]acetamide] gave a pIC50 of over 5.70. For the same molecule, in assay [2], the inhibition at 1 µM was over 50% and the “Gal4 activity range @ 0.1 μM (% inhibition)” value is over 0 % inhibition.

Take `NC(=O)Cc1ccc(CNc2ncnc(N(C3CC3)C(c3ccc(C(F)(F)F)cc3)C3CC3)c2F)cc1` (centres unmarked) [Example A13, 2-[4-[[[6-[cyclopropyl-[cyclopropyl-[4-(trifluoromethyl)phenyl]methyl]amino]-5-fluoro-pyrimidin-4-yl]amino]methyl]phenyl]acetamide]: the pIC50 in assay [1] is over 6.30. Moreover, in assay [2], the inhibition at 1 µM is over 80% and the “Gal4 activity range @ 0.1 μM (% inhibition)” value is over 20 % inhibition.

`O=C(O)C[C@@H](CCc1ccccc1)Nc1ncnc(N(Cc2ccc(C(F)(F)F)cc2)C2CC2)c1F` [Example A181, (3R)-3-[[6-[cyclopropyl-[[4-(trifluoromethyl)phenyl]methyl]amino]-5-fluoro-pyrimidin-4-yl]amino]-5-phenyl-pentanoic acid] showed a pIC50 in assay [1] of over 6.30. In addition, in assay [2], the inhibition at 1 µM is over 80% and the “Gal4 activity range @ 0.1 μM (% inhibition)” value is listed as over 0 % inhibition.

`NC(=O)Cc1ccc(CNc2ncnc(N(Cc3ccccc3Cl)C3CC3)c2F)cc1` [Example A66, 2-[4-[[[6-[(2-chlorophenyl)methyl-cyclopropyl-amino]-5-fluoro-pyrimidin-4-yl]amino]methyl]phenyl]acetamide] showed a negative-log IC50 (pIC50) in assay [1] of over 6.30. Besides, in assay [2], the inhibition at 1 µM is over 50% and the “Gal4 activity range @ 0.1 μM (% inhibition)” value is over 20 % inhibition.

`O=C(O)CC1(CNc2ncnc(N(Cc3ccc(C(F)(F)F)cc3)C3CC3)c2F)CCOCC1` [Example A79, 2-[4-[[[6-[cyclopropyl-[[4-(trifluoromethyl)phenyl]methyl]amino]-5-fluoro-pyrimidin-4-yl]amino]methyl]tetrahydropyran-4-yl]acetic acid] gave a pIC50 in assay [1] of over 6.00. The inhibition at 1 µM in assay [2] was over 20%.

On to `CN(Cc1ccc(-n2cccn2)cc1)c1ncnc(NCc2ccc(CC(N)=O)cc2)c1F` [Example A52, 2-[4-[[[5-fluoro-6-[methyl-[(4-pyrazol-1-ylphenyl)methyl]amino]pyrimidin-4-yl]amino]methyl]phenyl]acetamide], for which, in assay [1], the pIC50 was over 6.30. In addition, in assay [2], the inhibition at 1 µM was over 50% and the “Gal4 activity range @ 0.1 μM (% inhibition)” value is over 0 % inhibition.

Regarding `NC(=O)Cc1ccc(CNc2ncnc(N(Cc3ccc(C(F)(F)F)cc3)C3CC3)c2F)cn1` [Example A78, 2-[5-[[[6-[cyclopropyl-[[4-(trifluoromethyl)phenyl]methyl]amino]-5-fluoro-pyrimidin-4-yl]amino]methyl]-2-pyridyl]acetamide], the pIC50 in assay [1] is over 6.30. Further, in assay [2], the inhibition at 1 µM was over 80% and the “Gal4 activity range @ 0.1 μM (% inhibition)” value is given as over 50 % inhibition.

On to `NC(=O)Cc1ccc(CNc2ncnc(N(Cc3ccc(C(F)(F)F)cc3)C3CCC3)c2F)cc1` [Example A15, 2-[4-[[[6-[cyclobutyl-[[4-(trifluoromethyl)phenyl]methyl]amino]-5-fluoro-pyrimidin-4-yl]amino]methyl]phenyl]acetamide], for which, in assay [1], the pIC50 was over 6.30. Moreover, in assay [2], the inhibition at 1 µM was over 80% and the “Gal4 activity range @ 0.1 μM (% inhibition)” value is over 20 % inhibition.

Consider `N#Cc1ccc(CN(c2ncnc(NCc3ccc(CC(N)=O)cc3)c2F)C2CC2)cc1` [Example A64, 2-[4-[[[6-[(4-cyanophenyl)methyl-cyclopropyl-amino]-5-fluoro-pyrimidin-4-yl]amino]methyl]phenyl]acetamide], for which, in assay [1], the pIC50 was over 6.30. Besides, in assay [2], the inhibition at 1 µM is over 80% and the “Gal4 activity range @ 0.1 μM (% inhibition)” value was over 50 % inhibition.

Take `CS(=O)(=O)N1[C@@H]2CC[C@H]1CC(CNc1ncnc(N(Cc3ccc(C(F)(F)F)cc3)C3CC3)c1F)C2` (stereo partly drawn) [Example A171, N6-cyclopropyl-5-fluoro-N4-[[(1S,5R)-8-methylsulfonyl-8-azabicyclo[3.2.1]octan-3-yl]methyl]-N6-[[4-(trifluoromethyl)phenyl]methyl] pyrimidine-4,6-diamine]: in assay [1], the pIC50 was over 6.30. In addition, in assay [2], the inhibition at 1 µM was over 80% and the “Gal4 activity range @ 0.1 μM (% inhibition)” value was over 80 % inhibition.

In assay [1], `NC(=O)Cc1ccc(Cn2ccc3c(N(Cc4ccc(C(F)(F)F)cc4)C4CC4)ncnc32)cc1` [Example I1, 2-(4-((4-(cyclopropyl (4-(trifluoromethyl)benzyl)amino)-7H-pyrrolo[2,3-d]pyrimidin-7-yl)methyl)phenyl)acetamide] showed a pIC50 of over 6.30. In addition, in assay [2], the inhibition at 1 µM was over 80% and the “Gal4 activity range @ 0.1 μM (% inhibition)” value is on record as over 80 % inhibition.
